Experimental data taken from paper PMC9301920, “Physiologically Based Toxicokinetic Modeling of Bisphenols in Zebrafish (Danio rerio) Accounting for Variations in Metabolic Rates, Brain Distribution, and Liver Accumulation” (Environmental Science & Technology, 2022).
Structures can show the parent of a compound that is named as a salt. Where two headings read alike, the source gives them in different places. Marks after values point to notes of the source that are not given here.

Legend:
zebrafish [1] = assay: PBTK parameter fitting (Nelder–Mead algorithm) to in vivo zebrafish data; set-up: species or system zebrafish (Danio rerio); details: fitted on egg TBBPA concentrations, 100 nmol/g feed (Nyholm et al.)
Source text: Ovaries and eggs were assumed to receive the same blood flow. The equation for the egg compartment was described as follows using the diffusion-limited equation previously described by Thompson and Beard[51] [drawing 4] 4 where dAegg/dt represents the rate of change of bisphenol over time in the egg compartment, Agon and Aegg represent the amount of compound in the gonads and egg, respectively, Vgon and Vegg are the volumes of the gonads and eggs, respectively, and Pgon and Pegg are the partition coefficients of the gonads to blood and egg to gonads.
Parameter fitting was done in R using the modFit function in the FME package with the Nelder–Mead algorithm.[53]
279For fitting, the model was run using the exposure scenarios of each fitting data set.
280parameters were fixed as presented in Tables S10-S14 with exception of the parameter for
281which fitting was performed. The outcome evaluated by fitting algorithm was the concentration
282over time in the same tissue as the experimental data. Outcomes used for fitting to measured
283experimental data were: concentration in brain for brain-blood partition coefficient,
284concentration in liver for liver-blood partition coefficient, concentration in eggs for egg-gonad
285partition coefficient and whole-body metabolite concentration for Ke bile and KBG of metabolites.
286For the liver, brain and egg partitioning, the range was set between 0.01 and 500 and the Nelder-
287Mead algorithm was run with initial estimates at 1, 5, 10, 50 and 500 in order to assure a global
288minimum was found. The fitted values returning the lowest squared sum of residuals were used
The GI lumen to GI tract diffusion rate (K u)

[2] = cited from earlier work
[3] = In vitro biotransformation rate, rainbow trout liver S9 (OECD TG 319); assay type: in vitro ADME
Method: In brief, rainbow trout liver S9 homogenate was preincubated in buffer and cofactors, followed by 120 min of incubation with bisphenol. From each duplicate, 50 μL of subsamples was taken at timepoints 0, 2, 5, 15, 30, 60, 90, and 120 min and mixed with 200 μL of ice-cold methanol. The protocol of the procedure is described further in Section 2.
1042. Biotransformation rate estimation methodology
106Trinova Biochem; Lot: 180216) was pre-incubated at 11°C in K 2HPO4/KH2PO4 buffer
107(pH=7.8; 1 mL final volume) containing alamethicin from Trichoderma viride (25 μg/mL), and
108cofactors NADPH (2 mM), UDPGA (2 mM), GSH (5 mM), and PAPS (0.1 mM). After 10 min
109of preincubation, biotransformation was started by adding 5 µL of bisphenol test compound
110dissolved in methanol (1 µM final concentration). […]

zebrafish [4] = system: zebrafish; set-up: method as in Nyholm et al. 46; details: female, observed, ref Nyholm et al. 46, cited from earlier work
[5] = cited from earlier work; remark: listed apart in the source
Estrogen receptor (ER) [6] = target: Estrogen receptor (ER); set-up: method as in Tox21; details: ATG ERE CIS up assay; ref Tox21; cited from earlier work
[7] = cited from earlier work; remark: listed apart in the source
Estrogen receptor (ER) [8] = target: Estrogen receptor (ER); set-up: method as in Kitamura et al. 2005; details: ERE-luciferase reporter assay, MCF-7 cells; ref Kitamura et al. 2005; cited from earlier work
Estrogen receptor (ER) [9] = target: Estrogen receptor (ER); set-up: method as in Tox21; details: ATG Era Trans up assay; ref Tox21; cited from earlier work
zebrafish [10] = details: cited from earlier work
zebrafish [11] = details: female, observed, ref Chen et al. 43, cited from earlier work
[12] = hepatocytes; cited from earlier work
UGT1A1 = system: UGT1A1; set-up: method as in Wang et al. 64; details: single isolated enzyme; ref Wang et al. 64; cited from earlier work
ER = details: known from literature, no reference given; cited from earlier work
zebrafish [13] = details: cited from earlier work; remark: listed apart in the source
[14] = measured human values, ref CompTox Dashboard
[15] = from measured S9 clearance, transformed as suggested by Nichols et al.
[16] = in vitro incubation with rainbow trout liver S9, assuming 163 mg S9 protein/g liver
[17] = measured values, ref Grumetto et al 2019
[18] = 20 μg/L, female, liver, observed, ref Shi et al. 47
[19] = 20 μg/L, female, ovaries, observed, ref Shi et al. 47
[20] = 20 μg/L, female, whole body, observed, ref Shi et al. 47
[21] = 20 μg/L, male, liver, observed, ref Shi et al. 47
[22] = 20 μg/L, male, testes, observed, ref Shi et al. 47
[23] = 20 μg/L, male, whole body, observed, ref Shi et al. 47
[24] = cells marked g, ref Staples et al. 1998
[25] = metabolite, Female, whole body, Observed, ref Shi et al. 2016
[26] = metabolite, Male, whole body, Observed, ref Shi et al. 2016
[27] = metabolite, Female, whole body, Observed, ref Lindholst et al. 2003

CC(C)(c1cc(Br)c(O)c(Br)c1)c1cc(Br)c(O)c(Br)c1 [TBBPA, tetrabromobisphenol A]
Ku (diffusion coefficient from GI lumen into GI tract) (zebrafish [1]): 8.40
Pegg (egg-gonad partition coefficient) (zebrafish [1]; used for all bisphenols): 1.58
Funbound (plasma fraction unbound) [2, 14]: 0.001
parent compound metabolized when levels stopped decreasing ([3]; after 15 min of incubation, both repetitions): ~70%
CL ([3]; both series combined): 4.18 mL/(h x mg)
CLin vivo,int (in vivo intrinsic clearance) [3, 15]: 245 L/d/Kg fish
CL (clearance rate) [3, 16]: 1.63 × 10^4 mL/d/g liver
CL ([3]; series 1 (s1)): 3.90 mL/(h x mg)
k (first-order disappearance rate constant) ([3]; series 1 (s1)): 3.95 h⁻¹
CL ([3]; series 2 (s2)): 4.45 mL/(h x mg)
k (first-order disappearance rate constant) ([3]; series 2 (s2)): 4.38 h⁻¹
AUC (zebrafish [4]; 10 nmol/g feed, egg): 0.017 µg/g/day
Cmax (zebrafish [4]; 10 nmol/g feed, egg): 0.001 µg/g
AUC (zebrafish [4]; 10 nmol/g feed, whole body): 0.291 µg/g/day
Cmax (zebrafish [4]; 10 nmol/g feed, whole body): 0.015 µg/g
AUC (zebrafish [4]; 100 nmol/g feed, egg): 0.118 µg/g/day
Cmax (zebrafish [4]; 100 nmol/g feed, egg): 0.004 µg/g
log Kow ([5]; measured value, ref Kuramochi et al. 68): 6.53 ^i

Oc1ccc(Cc2ccc(O)cc2)cc1 [BPF, bisphenol F]
EC50 (Estrogen receptor (ER) [6]): 780 nM
Ratio blood-plasma [7, 17]: 1.41
EC50 (Estrogen receptor (ER) [8]): 1000 nM
CL ([3]; both series combined): 0.31 mL/(h x mg)
CLin vivo,int (in vivo intrinsic clearance) [3, 15]: 18.0 L/d/Kg fish
CL (clearance rate) [3, 16]: 1.20 × 10^3 mL/d/g liver
CL ([3]; series 1 (s1)): 0.31 mL/(h x mg)
k (first-order disappearance rate constant) ([3]; series 1 (s1)): 0.31 h⁻¹
CL ([3]; series 2 (s2)): 0.30 mL/(h x mg)
k (first-order disappearance rate constant) ([3]; series 2 (s2)): 0.31 h⁻¹
EC50 (Estrogen receptor (ER) [9]): 950 nM
log Kow ([5]; measured value, ref CompTox Dashboard): 2.91 ^h

Cc1cc(C(C)(C)c2ccc(O)c(C)c2)ccc1O [BPC, bisphenol C]
CL ([3]; both series combined): 1.03 mL/(h x mg)
CLin vivo,int (in vivo intrinsic clearance) [3, 15]: 60.6 L/d/Kg fish
CL (clearance rate) [3, 16]: 4.04 × 10^3 mL/d/g liver
CL ([3]; series 1 (s1)): 1.01 mL/(h x mg)
k (first-order disappearance rate constant) ([3]; series 1 (s1)): 1.03 h⁻¹
CL ([3]; series 2 (s2)): 1.05 mL/(h x mg)
k (first-order disappearance rate constant) ([3]; series 2 (s2)): 1.05 h⁻¹

CCC(C)(c1ccc(O)cc1)c1ccc(O)cc1 [BPB, bisphenol B]
EC50 (Estrogen receptor (ER) [6]): 170 nM
Ratio blood-plasma [7, 17]: 1.04
Funbound (plasma fraction unbound) [2, 14]: 0.018
EC50 (Estrogen receptor (ER) [8]): 70 nM
CL ([3]; both series combined): 0.96 mL/(h x mg)
CLin vivo,int (in vivo intrinsic clearance) [3, 15]: 56.4 L/d/Kg fish
CL (clearance rate) [3, 16]: 3.76 × 10^3 mL/d/g liver
CL ([3]; series 1 (s1)): 0.92 mL/(h x mg)
k (first-order disappearance rate constant) ([3]; series 1 (s1)): 0.95 h⁻¹
CL ([3]; series 2 (s2)): 1.00 mL/(h x mg)
k (first-order disappearance rate constant) ([3]; series 2 (s2)): 0.99 h⁻¹
EC50 (Estrogen receptor (ER) [9]): 130 nM

CC(C)(c1ccc(O)cc1)c1ccc(O)cc1 [BPA, Bisphenol A]
BCF (zebrafish [10]; 97.5 μg/L, gender not specified, whole body, observed, ref Lindholst et al. 39): 6.46
t1/2 (zebrafish [10]; zebrafish, in vivo): 107 h
BCF (zebrafish [11]; 1.94 μg/L, liver): 201
BCF (zebrafish [11]; 1.94 μg/L, ovaries): 10.3
BCF (zebrafish [11]; 5.72 μg/L, liver): 199
BCF (zebrafish [11]; 5.72 μg/L, ovaries): 21.0
BCF (zebrafish [11]; 5.72 μg/L, whole body): 19.2
CL (human clearance rate) [12]: 1.46*105 ml/d/g liver
Funbound (plasma fraction unbound) ([2]; plasma): 0.035
CLin vivo,int (in vivo intrinsic clearance) [3, 15]: 36.7 L/d/Kg fish
log Kow ([5]; ref Staples et al. 67): 3.42 ^f
UGT1A1 activity (UGT1A1): 5.19 pmol/min/mg protein

CC(C)(C)c1cc(Cc2cc(C(C)(C)C)c(O)c(C(C)(C)C)c2)cc(C(C)(C)C)c1O [Bimox M]
ER activity (ER): inactive on the ER
CL (in vitro rainbow trout clearance rate) [3]: 0 ml/d/g liver
metabolic degradation [3]: no metabolic degradation
CL (clearance rate) ([3]; 163 mg): 0 mL/d/g liver
CLin vivo,int (in vivo intrinsic clearance) ([3]; s9): 0 L/d/Kg fish

O=C(c1ccc(O)cc1O)c1ccc(O)cc1O [BP-2, benzophenone 2]
CL (human clearance rate) [12]: 1.41*105 ml/d/g liver
EC50 (Estrogen receptor (ER) [6]): 620 nM
Funbound (plasma fraction unbound) ([2]; human, plasma): 0.035
CL (clearance rate) ([3]; 163 mg): 5.79 × 10^4 mL/d/g liver
CLin vivo,int (in vivo intrinsic clearance) ([3]; s9): 869 L/d/Kg fish
EC50 (Estrogen receptor (ER) [9]): 620 nM

CC(c1ccccc1)(c1ccc(O)cc1)c1ccc(O)cc1 [BPAP, bisphenol AP]
EC50 (Estrogen receptor (ER) [6]): 290 nM
CL ([3]; both series combined): 1.80 mL/(h x mg)
CLin vivo,int (in vivo intrinsic clearance) [3, 15]: 106 L/d/Kg fish
CL (clearance rate) [3, 16]: 7.06 × 10^3 mL/d/g liver
CL ([3]; series 1 (s1)): 1.79 mL/(h x mg)
k (first-order disappearance rate constant) ([3]; series 1 (s1)): 1.73 h⁻¹
CL ([3]; series 2 (s2)): 1.82 mL/(h x mg)
k (first-order disappearance rate constant) ([3]; series 2 (s2)): 1.74 h⁻¹
EC50 (Estrogen receptor (ER) [9]): 120 nM

CC(C)(c1ccc(O)cc1)c1ccc(OS(=O)(=O)O)cc1 [BPA sulfate]
concentrations relative to those of the glucuronide (zebrafish [10]; zebrafish, in vivo): 1000 times lower

Oc1ccc(C(c2ccc(O)cc2)(C(F)(F)F)C(F)(F)F)cc1 [BPAF, bisphenol AF]
Funbound (plasma fraction unbound) [2, 14]: 0.010
AUC (zebrafish [13]; [18]): 1.38 µg/g/day
BCF (zebrafish [13]; [18]): 11.9
Cmax (zebrafish [13]; [18]): 0.24 µg/g
t1/2 (zebrafish [13]; [18]): 204 h
AUC (zebrafish [13]; [19]): 1.50 µg/g/day
BCF (zebrafish [13]; [19]): 10.9
Cmax (zebrafish [13]; [19]): 0.22 µg/g
t1/2 (zebrafish [13]; [19]): 190 h
AUC (zebrafish [13]; [20]): 0.8 µg/g/day
BCF (zebrafish [13]; [20]): 7.04
Cmax (zebrafish [13]; [20]): 0.14 µg/g
t1/2 (zebrafish [13]; [20]): 120 h
AUC (zebrafish [13]; [21]): 4.93 µg/g/day
BCF (zebrafish [13]; [21]): 40.5
Cmax (zebrafish [13]; [21]): 0.81 µg/g
t1/2 (zebrafish [13]; [21]): 610 h
AUC (zebrafish [13]; [22]): 3.23 µg/g/day
BCF (zebrafish [13]; [22]): 27.5
Cmax (zebrafish [13]; [22]): 0.55 µg/g
t1/2 (zebrafish [13]; [22]): 20.4 h
AUC (zebrafish [13]; [23]): 1.25 µg/g/day
BCF (zebrafish [13]; [23]): 9.80
Cmax (zebrafish [13]; [23]): 0.20 µg/g
t1/2 (zebrafish [13]; [23]): 85.9 h
CL ([3]; both series combined): 0.78 mL/(h x mg)
CLin vivo,int (in vivo intrinsic clearance) [3, 15]: 45.5 L/d/Kg fish
CL (clearance rate) [3, 16]: 3.04 × 10^3 mL/d/g liver
CL ([3]; series 1 (s1)): 0.75 mL/(h x mg)
k (first-order disappearance rate constant) ([3]; series 1 (s1)): 0.73 h⁻¹
CL ([3]; series 2 (s2)): 0.80 mL/(h x mg)
k (first-order disappearance rate constant) ([3]; series 2 (s2)): 0.78 h⁻¹

O=S(=O)(c1ccc(O)cc1)c1ccc(O)cc1 [BPS, bisphenol S]
EC50 (Estrogen receptor (ER) [6]): 1420 nM
EC50 (Estrogen receptor (ER) [8]): 1100 nM
k (first-order disappearance rate constant) ([3]; series 1 (s1)): 0.41 h⁻¹
k (first-order disappearance rate constant) ([3]; series 2 (s2)): 0.48 h⁻¹
EC50 (Estrogen receptor (ER) [9]): 800 nM

O=C(O)[C@H]1O[C@@H](Oc2ccc(C(c3ccc(O)cc3)(C(F)(F)F)C(F)(F)F)cc2)[C@H](O)[C@@H](O)[C@@H]1O [BPAF-GA, BPAF glucuronic acid]
Ratio blood-plasma [7, 24]: 1.00
AUC (zebrafish [13]; [25]): 6.54 µg/g/day
Cmax (zebrafish [13]; [25]): 1.09 µg/g
AUC (zebrafish [13]; [26]): 3.54 µg/g/day
Cmax (zebrafish [13]; [26]): 0.60 µg/g

BPA glucuronic acid [BPA-GA]
AUC (zebrafish [10]; [27]): 109 µg/g/day
Cmax (zebrafish [10]; [27]): 16.2 µg/g
t1/2 (zebrafish [10]; [27]): 196 h
Ratio blood-plasma [7, 24]: 1.00
